Values joined by “and” are separate entries in the source; they are usually repeats but may differ in a detail not shown here. Equal values may be shown once.
Assay: Nuclear Factor of Activated T-Cells (NFAT) Assay: PD-L1 aAPC/CHO-Klcells (Promega) were maintained in F-12 medium with addition of 10% FBS, 200 μg/ml Hygromycin B, 250 μg/ml Geneticin (G418). Jurkat-PD-1-NFAT effector cells (Promega) were cultured in RPMI 1640 medium supplemented with 10% FBS, 100 μg/ml Hygromycin B, 500 μg/ml G418. The culture media of PD-L1 aAPC/CHO-K1 cells were first replaced with assay medium (RPMI1640 medium with 1% FBS). The PD-L1 aAPC/CHO-K1 cells were then added in a white 384-well white clear bottom assay plate (CELLCOAT® Tissue Culture Plates, Greiner Bio-One) at 8000 per well in 10 μL assay medium. Test compounds were prepared by serial dilution in DMSO and 0.8 μL test compounds in DMSO were first transferred to the 384 REMP plate well (Thermofisher) by PlateMate Plus (Thermofisher) followed with addition of 50 μL plating medium. 5 μL compounds in the assay medium were transferred to the cells with 0.4% DMSO in the final assay at 2 μM. After removing the culture media, 10,000 Jurkat-PD-1-NFAT effector cells in 5 μL assay medium was dispensed into each well. The assay plate was incubated at 37° C., 5% CO2 for 24 hours. After the assay plate was equilibrated to room temp for 15 minutes, 20 µL/well of Bio-Glo™ reagent (Promega) were added. After 8 minutes incubation at room temperature, luminescence was read at with Pherastar microplate reader (BMG Labtech). The fold of induction (FOI) was calculated based on the ratio of luminescence normalized to the DMSO wells within each assay plate. The maximum percentage of induction was reported based on the ratio between the highest FOI of each compound and the maximum FOI of control compound within each assay plate. Wells with DMSO were served as the negative controls and wells containing control compound with the highest FOI were used as positive controls. EC50 determination was performed by fitting the curve of percent control activity versus the log of the compound concentration using the GraphPad Prism 6.0 software.

SMILES | EC50
Cc1nc(Nc2cccc(-c3cccc(-c4nc5cc(CN6CC[C@@H](C(=O)O)C6)cc(C#N)c5o4)c3C)c2C)c2ncc(CN3CC[C@@H](O)C3)cc2n1 | 0.01 to 0.1 µM and < 0.01 µM
Cc1c(Nc2nc(C(F)F)nc3cc(CN4CC[C@@](C)(O)C4)cnc23)cccc1-c1cccc(-c2nc3cc(CN4CCC(C(=O)O)CC4)cc(C#N)c3o2)c1C | < 0.01 µM
Cc1c(Nc2nc(C(F)F)nc3cc(CN4CC[C@@H](O)C4)cnc23)cccc1-c1cccc(-c2nc3cc(CN4CC[C@@H](C(=O)O)C4)cc(C#N)c3o2)c1C | 0.01 µM and 0.1 µM and in the range around 0.055 µM
Cc1c(Nc2nc(C(F)F)nc3cc(CN4CC[C@@H](O)C4)cnc23)cccc1-c1cccc(-c2nc3cc(CN4CC[C@H](C(=O)O)C4)cc(C#N)c3o2)c1C | 0.01 to 0.1 µM
Cc1c(Nc2nc(N)nc3cc(CN4CC[C@@H](O)C4)cnc23)cccc1-c1cccc(-c2nc3cc(CN4CCC(C(=O)O)CC4)cc(C#N)c3o2)c1C | 0.01 to 0.1 µM
Cc1nc(Nc2cccc(-c3cccc(-c4nc5cc(CN6CC[C@@H](C(=O)O)C6)cc(C#N)c5o4)c3C)c2C)c2ncc(CN3CC[C@@](C)(O)C3)cc2n1 | 0.01 to 0.1 µM
Cc1c(Nc2nc(CO)nc3cc(CN4CC[C@@H](O)C4)cnc23)cccc1-c1cccc(-c2nc3cc(CN4CCC(C(=O)O)CC4)cc(C#N)c3o2)c1C | 0.01 to 0.1 µM
Cc1c(Nc2nc(C3CC3)nc3cc(CN4CC[C@@H](O)C4)cnc23)cccc1-c1cccc(-c2nc3cc(CN4CC[C@@H](C(=O)O)C4)cc(C#N)c3o2)c1C | in the range around 0.055 µM
Cc1c(Nc2nc(C(F)F)nc3cc(CN4CC[C@@H](O)C4)cnc23)cccc1-c1cccc(-c2nc3cc(CN4CCC(C(=O)O)CC4)cc(C#N)c3o2)c1C | in the range around 0.055 µM
Cc1nc(Nc2cccc(-c3cccc(-c4nc5cc(CN6CC[C@@H](C(=O)O)C6)cc(C#N)c5o4)c3C)c2C)c2ncc(CN[C@@H](C)CO)cc2n1 | 0.01 to 0.1 µM
Cc1nc(Nc2cccc(-c3cccc(-c4nc5cc(CN6CC[C@@](C)(C(=O)O)C6)cc(C#N)c5o4)c3C)c2C)c2ncc(CN3CC[C@@](C)(O)C3)cc2n1 | 0.01 to 0.1 µM
Cc1nc(Nc2cccc(-c3cccc(-c4nc5cc(CN6CC[C@@](C)(C(=O)O)C6)cc(C#N)c5o4)c3C)c2C)c2ncc(CN[C@@H](C)CO)cc2n1 | in the range around 0.055 µM
CNC(=O)C1CCN(Cc2cc(C#N)c3oc(-c4cccc(-c5cccc(Nc6nc(C(F)F)nc7cc(CN8CC[C@@H](O)C8)cnc67)c5C)c4C)nc3c2)CC1 | < 0.01 µM
Cc1nc(Nc2cccc(-c3cccc(-c4nc5cc(CN6CC[C@@H](C(=O)O)C6)cc(C#N)c5o4)c3C)c2C)c2ncc(CNC[C@H](C)O)cc2n1 | 0.01 to 0.1 µM
Cc1nc(Nc2cccc(-c3cccc(-c4nc5cc(CN6CC[C@@](C)(C(=O)O)C6)cc(C#N)c5o4)c3C)c2C)c2ncc(CNC[C@H](C)O)cc2n1 | in the range around 0.055 µM
Cc1nc(Nc2cccc(-c3cccc(-c4nc5cc(CN6CC[C@@H](C(=O)O)C6)cc(C#N)c5o4)c3C)c2C)c2ncc(CN3CC[C@](C)(O)C3)cc2n1 | 0.01 to 0.1 µM
Cc1c(Nc2nc(C(F)F)nc3cc(CN4CC[C@@H](O)C4)cnc23)cccc1-c1cccc(-c2nc3cc(CN4CCC(C(=O)N(C)C)CC4)cc(C#N)c3o2)c1C | 0.01 to 0.1 µM
Cc1nc(Nc2cccc(-c3cccc(-c4nc5cc(CN6CC[C@@](C)(C(=O)O)C6)cc(C#N)c5o4)c3C)c2C)c2ncc(CN3CC[C@@H](O)C3)cc2n1 | 0.01 to 0.1 µM
Cc1c(Nc2nc(C(F)F)nc3cc(CN4CC[C@@H](O)C4)cnc23)cccc1-c1cccc(-c2nc3cc(CN4CC[C@@](C)(C(=O)O)C4)cc(C#N)c3o2)c1C | 0.01 µM and 0.1 µM and in the range around 0.055 µM
Cc1nc(Nc2cccc(-c3cccc(-c4nc5cc(CN6CC[C@@](C)(C(=O)O)C6)cc(C#N)c5o4)c3C)c2C)c2ncc(CN3CC[C@](C)(O)C3)cc2n1 | 0.01 to 0.1 µM
Cc1c(Nc2nc(C(F)F)nc3cc(CN4CC[C@@H](O)C4)cnc23)cccc1-c1cccc(-c2nc3cc(CN4CCC(C(=O)NCCC(=O)O)CC4)cc(C#N)c3o2)c1C | 0.01 to 0.1 µM
Cc1c(Nc2nc(C(F)F)nc3cc(CN4CC[C@@H](O)C4)cnc23)cccc1-c1cccc(-c2nc3cc(CN4CCC(C)(C(=O)O)CC4)cc(C#N)c3o2)c1C | 0.01 to 0.1 µM
Cc1c(Nc2nc(C(F)F)nc3cc(CN4CC[C@](C)(O)C4)cnc23)cccc1-c1cccc(-c2nc3cc(CN4CCC(C(=O)O)CC4)cc(C#N)c3o2)c1C | < 0.01 µM
Cc1nc(Nc2cccc(-c3cccc(-c4nc5cc(CN6CCC(C(=O)O)CC6)cc(C#N)c5o4)c3C)c2C)c2ncc(CNC[C@H](C)O)cc2n1 | in the range around 0.055 µM
Cc1c(Nc2nc(C(F)F)cc3cc(CN4CC[C@@H](O)C4)cnc23)cccc1-c1cccc(-c2nc3cc(CN4CC[C@@](C)(C(=O)O)C4)cc(C#N)c3o2)c1C | < 0.01 µM
Cc1nc(Nc2cccc(-c3cccc(-c4nc5cc(CN6CCC(C(=O)O)CC6)cc(C#N)c5o4)c3C)c2C)c2ncc(CN3CC[C@@](C)(O)C3)cc2n1 | 0.01 to 0.1 µM
Cc1nc(Nc2cccc(-c3cccc(-c4nc5cc(CN6CCC(C(=O)O)CC6)cc(C#N)c5o4)c3C)c2C)c2ncc(CN[C@@H](C)CO)cc2n1 | in the range around 0.055 µM
Cc1nc(Nc2cccc(-c3cccc(-c4nc5cc(CN6CCC(C(=O)O)CC6)cc(C#N)c5o4)c3C)c2C)c2ncc(CN3CC[C@@H](O)C3)cc2n1 | 0.01 to 0.1 µM
Cc1nc(Nc2cccc(-c3cccc(-c4nc5cc(CN6CCC(C(=O)O)CC6)cc(C#N)c5o4)c3C)c2C)c2ncc(CN3CC[C@](C)(O)C3)cc2n1 | 0.01 to 0.1 µM
Cc1c(Nc2nc(C(F)F)nc3cc(CN4CC[C@@H](O)C4)cnc23)cccc1-c1cccc(-c2nc3cc(CN4CC[C@](C)(C(=O)O)C4)cc(C#N)c3o2)c1C | < 0.01 µM

Source: ChEMBL document CHEMBL5727750, “Heterocyclic compounds as immunomodulators” (2020)
